This is an account of results in US11834663B2, “Fibrotic treatment” (Monash University, priority 2015, dated 2023).

Assay [1] relates to hearts of aged (18-22 month old) WT mice. Kind of assay: Reversal of age-induced cardiac fibrosis and inflammation in aged WT mice (histology, immunofluorescence, western blot). The format is in vivo, mouse. As to the method:
(§1) There are 8 different sets of in vivo experiments in this study: • A) Phenotypic characterisation of the heart and blood vessels in global IRAP knockout mice and their WT controls treated for 4 weeks with Angiotensin (Ang) II (800 ng/kg/min; s.c.) where mouse hearts and blood vessels were compared to tissue obtained from young WT and IRAP^−/− mice treated with saline. • B) Prevention of Ang II-induced changes in the cardiovascular system following IRAP inhibitor treatment. In the prevention model, WT mice were treated with Ang II (800 ng/kg/min; s.c.)±the IRAP inhibitor (HFI-419; 500 ng/kg/min for 28 days) or HFI-vehicle (1 DMSO:3 HBC). • C) Phenotypic characterisation of the aged heart, kidney and blood vessels in the global IRAP knockout mice where aged WT and IRAP^−/− mouse hearts, kidneys and blood vessels were compared to tissue obtained from young WT and IRAP^−/− mice. • D) Reversal of the age-induced changes in the cardiovascular system following IRAP inhibitor treatment. In the reversal model, aged WT mice were treated with either saline, IRAP inhibitor (HFI-419 at 500 ng/kg/min; compound 1 at 500 ng/kg/min; compound 2 at 50 ng/kg/min) or HFI-vehicle (1 DMSO: 3 HBC) for 4 weeks. • E) Prevention of ischemic-reperfusion injury in isolated hearts taken from aged global IRAP knockout mice and aged IRAP inhibitor (HFI-419 at 500 ng/kg/min; s.c.) treated WT mice compared to age-matched vehicle-treated (1 DMSO:3 HBC; s.c.) WT controls. • F) Phenotypic characterization of cardiac function using echocardiography in the aged global IRAP knockout mice compared to aged and young WT mice. • G) Phenotypic characterization of liver steatosis in IRAP knockout mice in a high fat diet (HFD) model. • H) Reversal of the salt-induced fibrosis in the liver following IRAP inhibitor treatment.
All mice which underwent surgery were anaesthetized with Isoflurane (Isorrane) (5% induction and 2.5% maintenance) and an incision made in the midscapular region through which osmotic minipumps (Alzet model 2004, Alza Corp) were inserted for subcutaneous drug administration. The incision area was sutured with 6/0 DY silk (Dynek Pty Ltd) and antibiotic powder applied (Cicatrin, Pfizer) followed by intramuscular injection of the analgesic Cartrophen (0.1 ml of a 1.5 mg/ml stock solution; Biopharm Australia). Systolic blood pressure (SBP) was measured fortnightly using non-invasive tail-cuff plethysmography apparatus (MC4000 Blood Pressure Analysis System, Hatteras Instrument Inc) before drug treatment (week 0), at week 2 of treatment and end of treatment (week 4). At the end of drug treatment, body weight of mice was recorded. Mice were anaesthetized using Isoflurane inhalation and killed by cervical dislocation. Organs (heart, aorta, kidneys, brain, blood and tibia) were collected, with heart and aorta being dissected appropriately as described below. All organs were then snap frozen in liquid nitrogen, and stored at −80° C. if they were not used for vascular reactivity studies conducted on the day mice were killed.
To measure collagen deposition, frozen sections of heart, kidney or aorta (all 5 μm thickness) were air dried for 10 minutes and were brought through 3 times xylene (2 minutes each), and 3 times absolute alcohol washes before being rinsed in tap H2O for 30 seconds. Staining with an optimal concentration of picrosirius red (in this instance 0.05% picrosirius red diluted in saturated picric acid) was performed and left for an hour. Sections were then rinsed in water and differentiated in 0.01 M HCl for 2 minutes, followed by dehydration via 3 times absolute alcohol washes. Then, slides were brought through 3 times xylene washes before being cover slipped according to standard histological techniques using DPX as the mounting medium. […]
On the technique in general: A western blot detects proteins with antibodies after separation by electrophoresis.

Assay [2] has as its system isolated hearts from aged WT mice. Kind of assay: Ischemic-reperfusion injury in isolated Langendorff hearts from chronically treated aged WT mice. It is filed as in vivo, mouse. As to the method:
as §1
Mice were injected with heparin (500 IU) 20 min before death by cervical dislocation. The heart was rapidly excised and immersed in ice-cold physiological saline solution (PSS). Under a dissecting microscope, the heart and aortic arch were cleared of loose tissue, the pulmonary vein perforated to permit free perfusion of the heart and the heart was mounted on a Langendorff apparatus (ML870B2, ADInstruments, Bella Vista, NSW, Australia) via a 20 gauge needle. The heart was continuously perfused with pre-warmed PSS containing (mM): NaCl 118; KCl 4.7; NaHCO3 25; glucose 11; KH2PO4 1.2; MgSO4 1.2; CaCl2) 1.2 mM and gassed with O2 95% and CO2 5% (carbogen) at 37° C. Prior to use, the PSS was filtered through a 0.22 μm cellulose acetate filter (Millipore). The heart perfusion chamber was surrounded by thermostatically controlled water jacket system that maintained the temperature at 37° C. A fine, 200 μm cannula was present in the PSS line for drug delivery (1:10 drug dilution and with a time lag of 1 min to the heart). A Millar pressure cathether (Millar instruments Inc.) was introduced into the left ventricle via a puncture at the junction of the left atrium and ventricle, and connected to a Power lab system (ADInstruments). […] Left ventricular developed pressure (LVDP); end diastolic pressure (EDP), heart rate (HR), left ventricular contractility (+dP/dt) and left ventricular relaxation (−dP/dt) and coronary flow were recorded continuously.
Ischemia was induced by halting perfusion of the heart for 40 min. […] Left ventricular developed pressure (LVDP), end diastolic pressure (EDP) and contractility (±dP/dt) were recorded during the 60 min. […]

Setting [3] is: aged WT mice, HFI-419 4 weeks, FIG. 13.
Where [4] appears, read: aged WT mice, HFI-419 4 weeks, FIG. 17.
Where [5] appears, read: aged WT mice, HFI-419 4 weeks, FIG. 18.

Regarding `CCOC(=O)C1=C(NC(C)=O)Oc2cc(O)ccc2C1c1cccnc1` (centres unmarked) [HFI-419], in assay [1] (setting [3]), the “ICAM-1 expression in heart” value is given as “reduced”, the “MCP-1 expression in heart” value is “reduced”, the “NFκB activation in heart (phospho-IκBα)” value is given as “diminished” and the “macrophage expression in heart” value was “reduced”. In addition, the “superoxide production in heart (DHE)” value in assay [1] (setting [3]) is recorded as “diminished”. In assay [1] (setting [4]), the “MMP-2 protein level in heart” value is “no change”, the “MMP-8 protein expression in heart” value is listed as “trend towards increased”, the “MMP-9 protein level in heart” value is recorded as “no change” and the “MMP-13 protein level in heart” value was “no change”. Besides, in assay [1] (setting [4]), the “TIMP-1 protein levels in heart” value was “significantly decreased”; the “precursor and mature forms of collagen α1 Type I in heart (western blot)” value is listed as “markedly reduced”. In assay [1] (setting [5]), the “TGF-β1 expression in heart” value was “downregulation” and the “synthetic myofibroblasts (α-SMA) in heart” value was “downregulation”. The “IRAP expression in heart” value in assay [1] (~20 month old WT mice, HFI-419 500 ng/kg/min s.c., 4 weeks, FIG. 8c) was “significantly decreased”. Further, the “age-induced cardiac collagen deposition (picrosirius red)” value in assay [1] (~20 month old WT mice, HFI-419 500 ng/kg/min s.c., 4 weeks, FIGS. 15, 16) was “reversed age-induced collagen deposition to the same level seen in young adult mice”. Further, the “reduction in infarct area compared to the aged WT control” value in assay [2] (40 min ischemia / 60 min reperfusion, aged WT mice treated with HFI-419 for 4 weeks, FIG. 20a) was around 50%. Besides, the “recovery of LVDP in the first 10 minutes of reperfusion” value in assay [2] (aged WT mice, HFI-419 4 weeks) was “did not affect”. Moreover, in assay [2] (evident from 20 min of reperfusion, aged WT mice, HFI-419 4 weeks, FIG. 20b), the “recovery of LVDP in latter stages of reperfusion” value is recorded as “significant improvement”. Further, the “recovery of LV±dP/dt in latter stages of reperfusion” value in assay [2] (evident from 20 min of reperfusion, aged WT mice, HFI-419 4 weeks, FIG. 20c,d) was “significant improvement”. Moreover, in assay [2] (pre-ischemic baseline, aged WT vehicle vs HFI-419 treated), the “HR, LVDP or LVEDP at baseline” value was “no difference”.
